Laboratory results as given in patent US20210235704A9, “Combinations of Lipo-Chitooligosaccharides and Methods for Use in Enhancing Plant Growth” (NOVOZYMES BIOAG A/S, priority 2011, published 2021).

Tested on: Florida petite cherry tomato plants
Assay: LCO foliar application on cherry tomato (greenhouse)
Assay type: in vivo
Details: at the end of harvest, compared to control treatment; FIG. 11
Procedure: Based on the findings from the soybean LCO and the alfalfa LCO combination in Siratro (example 1), further investigation was conducted on tomato. Florida petite cherry tomato plants were grown from seeds in greenhouse plastic containers and sprayed with soy LCO or its combination with alfalfa LCO during the initiation of flower buds at 5 ml/plant application rate. A second spry was also applied one week after the first application. At different maturity, leaf greenness, flower number, fruit number and final fruit fresh weight were measured.

LCO-V(C18:1, MeFuc), MOR116 [soy LCO]
average fruit number per plant: significantly higher
